From US7291740B2, “5-[4-[2-(N-methyl-N-(2-pyridyl)amino)ethoxy]benzyl]thiazolidine-2,4-dione Mesylate salt” (SmithKline Beecham p.l.c., priority 2000, dated 2007) come the findings set out here.

Like-named read-outs stand apart in the source and are kept apart here.

A short description of this series: Solubility of the Mesylate in water (aliquot addition until the powder dissolved). Format: physicochemical. From the text:
The visual solubility was confirmed by an HPLC assay of a saturated solution.

In the case of `CN(CCOc1ccc(CC2SC(=O)NC2=O)cc1)c1ccccn1.CS(=O)(=O)O` (stereo not shown) [Example 11, 5-[4-[2-(N-methyl-N-(2-pyridyl)amino)ethoxy]benzyl]thiazolidine-2,4-dione methanesulfonate Form IV], the Solubility (commonly the concentration that dissolves in the medium under given conditions) was > 100 mg/mL.
As to `CN(CCOc1ccc(CC2SC(=O)NC2=O)cc1)c1ccccn1.CS(=O)(=O)O` (stereo not shown) [Example 3, 5-[4-[2-(N-methyl-N-(2-pyridyl)amino)ethoxy]benzyl]thiazolidine-2,4-dione methanesulfonate Form II], the Solubility was > 100 mg/mL.
In the case of `CN(CCOc1ccc(CC2SC(=O)NC2=O)cc1)c1ccccn1.CS(=O)(=O)O` (stereo not shown) [Example 4, 5-[4-[2-(N-methyl-N-(2-pyridyl)amino)ethoxy]benzyl]thiazolidine-2,4-dione methanesulfonate Form III], the Solubility is > 100 mg/mL.
For the compound `CN(CCOc1ccc(CC2SC(=O)NC2=O)cc1)c1ccccn1.CS(=O)(=O)O` (stereo not shown) [Example 1, 5-[4-[2-(N-methyl-N-(2-pyridyl)amino)ethoxy]benzyl]thiazolidine-2,4-dione methanesulfonate Form I], the Solubility (water, visual dissolution (Form IV confirmed by HPLC assay of a saturated solution)) is > 100 mg/mL.
